Source: patent US12616203B2, “Use of 3-isoxazolidinones compounds as selective herbicides” (FMC Corporation, priority 2014, dated 2026)

Legend:
Wild buckwheat [1] = test: Ex15 PRE 2,4-DC + S-metolachlor, % control 28 DAT, Colby; format: in vivo, Polygonum convolvulus
Description: (§1) The weeds tested in this study were redroot pigweed (Amaranthus retroflexus, AMARE), Jimsonweed (Datura stramonium, DATST), black nightshade (Solanum nigrum, SOLNI), large crabgrass (Digitaria sanguinalis, DIGSA), Pennsylvania smartweed (Polygonum pensylvanicum, POLPY), horseweed (Conyza canadensis, ERICA), wild buckwheat (Polygonum convolvulus, POLCO). The crop tested was Corn (var. Viking).
(§2) To determine PRE efficacy and corn injury, five rates of each 2,4 DC (36.7% CS) and S-metolachlor (Dual II Magnum®, 82.4%) were applied either alone or as tank-mix. 2,4 DC was applied at 0, 125, 170, 210, or 250 g ai/ha and S-metolachlor was applied at 0, 267, 534, 801, or 1070 g ai/ha. Additional treatments included application of premix of pyroxasulfone plus fluthiacet-methyl (Anthem™ 23.3%) at 169.9 g ai/ha and tank-mix of mesotrione (Callisto®, 40%) at 123 g plus S-metolachlor at 1252 g. Treatments were applied just after the planting of large crabgrass, Jimsonweed, black nightshade, redroot pigweed, Pennsylvania smartweed, horseweed, wild buckwheat, and corn.
(§3) Flats were watered and fertilized routinely after treatment application. Each treatment was replicated three times. […] Corn injury was rated for bleaching and stunting.

weeds [2] = test: Ex10 PRE greenhouse; format: in vivo; conditions: 28 DAT, weed and rate in the words
Description: Treatments 1-12 of 2,4-DC and aclonifen tank-mix combinations follow same rates listed above. […] Sulfentrazone (Spartan 4F® 39.6%) at 280 g ai/ha, pendimethalin (Prowl 3.3®EC, 37.4%) at 784 g ai/ha, or S-metolachlor (Dual II Magnum® 82.4%) at 1084 g ai/ha were applied as commercial standards. Treatments were replicated 3 times and flats were watered after planting but before the treatment and lightly watered after treatment application. Thereafter flats were watered and fertilized routinely. […] Shepherd's-purse was rated at 21 and 28 DAT only, due to delayed emergence.

weeds [3] = test: Ex16 PRE greenhouse; format: in vivo; conditions: weed and rate in the words
Description: (§4) To determine PRE efficacy, five levels of 2,4 DC (36.7% CS) 0, 125, 170, 210, or 250 g ai/ha and five levels of pyroxasulfone (KIH485-85WG) 0, 50, 65, 80, or 95 g ai/ha were applied either alone or as tank-mix. Additional treatments consisted of premix of pyroxasulfone plus fluthiacet-methyl (Anthem™ 23.3%) at 169.9 g ai/ha, S-metolachlor (Dual II Magnum, 82.4%) at 1388 g, and tank-mix of mesotrione (Callisto, 40%) at 123 g plus S-metolachlor at 1252 g. […] Treatments were applied before the emergence of black nightshade, giant foxtail, green foxtail, yellow foxtail, large crabgrass, kochia, redroot pigweed, common ragweed, and barnyardgrass.
(§5) Flats were watered and fertilized routinely after treatment application. Each treatment was replicated three times.

weeds [4] = test: Ex22 PRE greenhouse; format: in vivo; conditions: 28 DAT, weed and rate in the words
Description: 2,4 DC (36.7% CS) was applied PRE at 0, 125, 170, 210, or 250 g ai/ha alone or as a tank-mix with S-metolachlor (Dual II Magnum®, 82.4%) at 0, 267, 534, 801, or 1070 g ai/ha. Pyroxasulfone plus fluthiacet-methyl (Anthem™, 23.3%) applied at 169.9 g ai/ha, and the tank-mix of mesotrione (Callisto®, 40%) at 123 g plus S-metolachlor (Dual II Magnum®, 82.4%) at 1252 g were included as a standards for comparison.
Thereafter flats were watered and fertilized routinely. Each treatment was replicated three times.

weeds; Corn = test: Ex25 PRE greenhouse; format: in vivo; conditions: rate in the words
Description: The crop tested in this study was Corn.
2,4 DC-21 (36.7% CS) was applied PRE at 0, 125, 170, 210, or 250 g ai/ha alone or as a tank-mix with pyroxasulfone (KIH-485, 85% WP) at 0, 50, 65, 80, or 95 g ai/ha. Pyroxasulfone plus fluthiacet-methyl (Anthem™, 23.3%) applied at 169.9 g ai/ha, s-metolachlor (Dual II Magnum®, 82.4%) applied at 1389 g, and the tank-mix of mesotrione (Callisto®, 40%) at 123 g plus s-metolachlor (Dual II Magnum®, 82.4%) at 1252 g were included as a standards for comparison. […] Thereafter flats were watered and fertilized routinely.

jimsonweed = test: Ex15 PRE 2,4-DC + S-metolachlor, % control 28 DAT, Colby; format: in vivo, Datura stramonium
Description: as §1, §2, §3

Black nightshade = test: as above; format: in vivo, Solanum nigrum
Description: as §1, §2, §3

[5] = test system: weeds; Corn (var. Viking); test: Ex15 PRE greenhouse; format: in vivo; conditions: rate in the words
Description: as §1, §2, §3

Pennsylvania smartweed = test: Ex15 PRE 2,4-DC + S-metolachlor, % control 28 DAT, Colby; format: in vivo, Polygonum pensylvanicum
Description: as §1, §2, §3

weeds [6] = test: Ex21 PRE greenhouse; format: in vivo; conditions: 28 DAT, weed and rate in the words
Description: 2,4 DC (36.7% CS) was applied PRE at 0, 125, 170, 210, or 250 g ai/ha alone or as a tank-mix with S-metolachlor (Dual II Magnum®, 82.4%) at 0, 267, 534, 801, or 1070 g ai/ha. Pyroxasulfone plus fluthiacet-methyl (Anthem™, 23.3%) applied at 169.9 g ai/ha, and the tank-mix of mesotrione (Callisto®, 40%) at 123 g plus S-metolachlor (Dual II Magnum®, 82.4%) at 1252 g were included as standards for comparison. […] Thereafter flats were watered and fertilized routinely. Each treatment was replicated three times.

Wild buckwheat [7] = test: Ex12 PRE 2,4-DC + dimethenamid-P, % control 28 DAT, Colby; format: in vivo, Polygonum convolvulus
Description: (§6) The tested weeds include: wild buckwheat (Polygonum convolvulus, POLCO), velvetleaf (Abutilon theophrasti, ABUTH), cheat (Bromus secalinus, BROSE), wild oat (Avena fatua, AVEFA), radish (Raphanus sativus, RAPSN), corn poppy (Papaver rhoeas, PAPRH), yellow foxtail (Setaria pumila, SETLU), Italian ryegrass (Lolium perenne ssp. multiflorum, LOLMU). The tested crop was Oilseed rape.
(§7) This greenhouse study was conducted to assess the preemergence (PRE) weed control and oilseed rape tolerance with 2,4 DC (CS 36.7%) and dimethenamid-P (Outlook®, 63.9%) tank-mix combinations.
(§8) Metazachlor (Butisan, 43.1%) plus dimethenamid-P applied as tank mix at 500 g each was applied as commercial standard. Treatments were replicated 3 times and flats were watered after planting but before the treatment and then lightly watered after treatment application. Thereafter flats were watered and fertilized routinely.

Wild oat = test: as above; format: in vivo, Avena fatua
Description: as §6, §7, §8

weeds [8] = test: Ex20 PRE greenhouse; format: in vivo; conditions: weed and rate in the words
Description: Herbicides: • 2,4 DC-21 (36.7% CS): 125, 170, 210, or 250 g ai/ha alone and as tank-mix with dimethenamid-P • Dimethanamid-P (Outlook, 63.9%): 250, 375, 500 g ai/ha in combination with 2,4 DC and alone, additional treatment alone at 750 g ai/ha. • Metazachlor (Butisan 43.1%): 500 g ai/ha
Herbicides included as standards for comparison were metazachlor plus dimethenamid-P (500 g) as tank mix combination. […] Treatments were replicated 3 times. […] Thereafter flats were watered and fertilized routinely.

weeds [9] = test: Ex13 PRE greenhouse; format: in vivo; conditions: 28 DAT, weed and rate in the words
Description: Pyroxasulfone (KIH-485, 85%) at 74.3 g ai/ha, pendimethalin (Prowl 3.3EC, 37.4%) at 1200 g ai/ha, or a premix of chlorsulfuron plus metsulfuron-methyl (Report Extra, 75%) at 15.8 g ai/ha were applied as commercial standards. […] Treatments were replicated 3 times and flats were watered after planting before the treatment and lightly watered after treatment application. Thereafter flats were watered and fertilized routinely.

Morningglory sp. = test: Ex38 PRE 2,4-DC + pyroxasulfone, % control 28 DAT, Colby; format: in vivo, Ipomea spp; conditions: PRE
Description: Pyroxasulfone plus fluthiacet-methyl (ANTHEM™, 23.3%) applied at 165 g ai/ha was included as a standard for comparison. […] Thereafter flats were watered and fertilized routinely.

[10] = test system: weeds; Wheat, barley, and oil seed rape (OSR); test: Ex19 PRE greenhouse; format: in vivo; conditions: rate in the words
Description: In this study, the crops tested included Wheat, barley, and oil seed rape (OSR).
To determine weed efficacy and wheat, barley or OSR selectivity, 2,4 DC (CS 36.7%) and Diflufenican (CS 19.5%) were applied preemergence either alone or as tank-mix partners at the following rates. 2,4 DC was applied at 125, 170, 210 and 250 g ai/ha while Diflufenican was applied at 50, 75, and 100 g ai/ha. Pyroxasulfone (KIH-485, 85%) at 74.3 g ai/ha, pendimethalin (Prowl 3.3EC, 37.4%) at 1200 g ai/ha, or a premix of chlorsulfuron plus metsulfuron-methyl (Report Extra, 75%) at 15.8 g ai/ha were applied as commercial standards.
Herbicides included as standards for comparison were pyroxasulfone, pendimethalin, and a pre mix of chlorsulfuron plus metsulfuron methyl, all applied at labeled rates as indicated above. Treatments were replicated 3 times. […] Thereafter flats were watered and fertilized routinely.

weeds [11] = test: Ex24 PRE greenhouse; format: in vivo; conditions: weed and rate in the words
Description: The tested weeds include Giant foxtail (Setaria faberi, SETFA), green foxtail (Setaria virdis, SETVI), yellow foxtail (Setaria pumila, SETLU), black nightshade (Solanum nigrum, SOLNI), kochia (Kochia scoparia, KCHSC), redroot pigweed (Amaranthus retroflexus, AMARE), common ragweed (Ambrosia artemisiifolia, AMBEL), barnyardgrass (Echinochloa crus-galli, ECHCG), large crabgrass (Digitaria sanguinalis, DIGSA).
as §4, with “DC-21” for “DC”, “Magnum®,” for “Magnum,”, “(Callisto®,” for “(Callisto,”, “bamyardgrass. […] Flats were watered and fertilized routinely after treatment application. Each treatment was replicated three times.” for “barnyardgrass.”

Common ragweed = test: Ex16 PRE 2,4-DC + pyroxasulfone, % control 28 DAT, Colby; format: in vivo, Ambrosia artemisiifolia
Description: as §4, §5

[12] = S-metolachlor alone 267 g ai/ha
[13] = S-metolachlor alone 534 g ai/ha
[14] = S-metolachlor alone 801 g ai/ha
[15] = S-metolachlor alone 1070 g ai/ha
[16] = dimethenamid-P alone 250 g ai/ha
[17] = dimethenamid-P alone 375 g ai/ha
[18] = dimethenamid-P alone 500 g ai/ha

CCc1cccc(C)c1N(C(=O)CCl)[C@@H](C)COC [S-metolachlor, reference compound]
Y (Wild buckwheat [1]; [12]): 33%
Y (Wild buckwheat [1]; [13]): 65%
Y (Wild buckwheat [1]; [14]): 82%
Y (Wild buckwheat [1]; [15]): 85%
weed control in words (weeds [2]): at 1064 g controlled only two weeds
weed control in words (weeds [3]): controlled black nightshade, redroot pigweed, barnyardgrass, large crabgrass, and all three foxtail species
weed control in words (weeds [4]): applied alone controlled Johnsongrass and goosegrass at all rates and controlled Benghal dayflower, prickly sida and common lambsquarters at 801 g
weed control / crop safety in words (weeds; Corn): controlled only black nightshade and also caused severe stunting to corn
Y (jimsonweed; [12]): 17%
Y (jimsonweed; [13]): 17%
Y (jimsonweed; [14]): 23%
Y (jimsonweed; [15]): 28%
Y (Black nightshade; [12]): 46%
Y (Black nightshade; [13]): 85%
Y (Black nightshade; [14]): 90%
Y (Black nightshade; [15]): 95%
weed control / crop safety in words [5]: alone gave control of all species at different rates except Jimsonweed
Y (Pennsylvania smartweed; [12]): 75%
Y (Pennsylvania smartweed; [13]): 95%
Y (Pennsylvania smartweed; [14]): 100%
Y (Pennsylvania smartweed; [15]): 100%
weed control in words (weeds [6]): applied alone controlled yellow foxtail, green foxtail, and barnyardgrass at all rates, quackgrass or common chickweed at ≥534 g, and common lambsquarters at ≥801 g

COC[C@H](C)N(C(=O)CCl)c1c(C)csc1C [Dimethenamid-P, dimethenamid-P, reference compound]
Y (Wild buckwheat [7]; [16]): 32%
Y (Wild buckwheat [7]; [17]): 70%
Y (Wild buckwheat [7]; [18]): 63%
Y (Wild oat; [16]): 66%
Y (Wild oat; [17]): 73%
Y (Wild oat; [18]): 90%
weed control in words (weeds [8]): alone controlled redroot pigweed, giant foxtail, and goosegrass at all rates; common chickweed at ≥375 g; shepherd's-purse at ≥500 g; and Canada thistle at 750 g

Cn1nc(C(F)(F)F)c(CS(=O)(=O)C2=NOC(C)(C)C2)c1OC(F)F [Pyroxasulfone, pyroxasulfone, reference compound]
weed control in words (weeds [9]): at 74.3 g controlled all weeds except tall morningglory and shepherd's-purse
weed control in words (weeds [3]): controlled all species except common ragweed which was not controlled at any rate
Y (% control, pyroxasulfone alone) (Morningglory sp.; pyroxasulfone 30 g ai/ha): 9%
Y (% control, pyroxasulfone alone) (Morningglory sp.; pyroxasulfone 60 g ai/ha): 60%
Y (% control, pyroxasulfone alone) (Morningglory sp.; pyroxasulfone 90 g ai/ha): 65%
weed control / crop safety in words [10]: controlled all weeds except field violet and was safe on wheat only
weed control in words (weeds [11]): controlled all species except common ragweed which was not controlled at any rate
Y (Common ragweed; pyroxasulfone alone 50 g ai/ha): 40%
Y (Common ragweed; pyroxasulfone alone 65 g ai/ha): 53%
Y (Common ragweed; pyroxasulfone alone 80 g ai/ha): 40%
Y (Common ragweed; pyroxasulfone alone 95 g ai/ha): 70%
